Measured values as given in US20030235646A1, “Method for improving quality of meat by supplementing pig diets and concentrates used therefor” (Lonza Inc., priority 2002, published 2003).

Tests used:
pork = test: Follow-up studies of pork drip loss (Example 3, FIGS. 1 and 2); assay type: in vivo, pigs
Protocol: Drip loss is a measurement of the ability of the sample to retain water. In this procedure, a standardized amount of lean pork muscle, i.e., a cubic centimeter, is weighed, then suspended in an airtight container from a hook for 24 hours. The difference in weight from beginning to end of the 24 hour period represents the amount of water loss or purge. […] Changes in the pH of pork associated with postmortem metabolism affect the isoelectric point of the various amino acids in protein, and thus can affect the protein's ability to bind water.

pigs = test: Growth performance of pigs (Example 1); assay type: in vivo; details: between 73.6 and 164 lb; P>0.64
Protocol: (§1) One hundred twenty-six gilts (initially 73.6 lb, PIC C22×L326) were allotted by weight and ancestry in a randomized complete block design to each of the nine experimental treatments arranged in a 3×3 factorial arrangement. There were two pigs/pen and seven replicates/treatment. Pigs were housed in an environmentally controlled building with 4-ft×4-ft slatted-floor pens.
(§2) L-carnitine (0, 25, or 50 ppm) was added to the diet from 73.6 lb until slaughter (approximately 240 lb). Paylean (a registered trademark of Eli Lilly Company for ractopamine) treatments (0, 4.5, or 9 g/ton) were fed for the last four weeks of the experiment. The basal diet was formulated to contain 1.10% lysine from 73.6 to 164 lb, and 1.00% lysine from 164 lb until the end of the experiment. These quantities of Paylean are equivalent to 0, 5, and 10 ppm of ractopamine in the feed, respectively.
Weights were obtained on every pig and feed disappearance was recorded every fourteen days during the experiment until the last four weeks, at which time measurements were taken weekly to calculate ADG, ADFI, and feed efficiency (F/G). One pig (closest to 240 lb) per pen was selected and slaughtered at the Kansas State University Meat Laboratory. […]
Data were analyzed as a randomized complete block. […]

finishing pigs = test: Carcass characteristics of finishing pigs fed Carnitine and Paylean (Example 2); assay type: in vivo; details: for Firmness / Marbling / Visual cobra: score 1 to 5
Protocol: Because of the dramatic and potentially economically important changes in pork quality observed in the data of Example 1, a second trial was conducted to confirm these observations. This experiment was conducted in the same facility as Example 1 and used the same diet in Table 1. The primary difference was that the 4.5 g/ton ractopamine level was not included; i.e., only 0 or 9 grams/ton ractopamine was combined with either 0, 25, or 50 ppm of added L-camitine.

[1] = tested on: finishing pigs (longissimus muscle); test: Carcass quality measures of finishing pigs fed Carnitine and Paylean (Example 1); assay type: in vivo; parameters: key to L*: lightness: 100 = perfect white, 0 = absolute black; key to Firmness: score 1 = soft and watery, 5 = firm and dry; Hue angle / Drip loss: unit not given here; details: for Temperature: 45 minutes postmortem
Source text: Color is qualitatively measured using Minolta color-spectrometry, a process which evaluates the Hunter L* and a* values of the meat color, as well as by the saturation index and the Hue Angle value. Hunter L* value measures the lightness of the meat color and varies from 100 for perfect white to 0 for absolute black. Acceptable values for pork range from 35 to 55, with 40-45 values being most preferred by consumers.
The other Hunter value is related to the hue of the color of the meat, with increasing a* values indicating redness and decreasing a values indicating greenness. High quality pork has Hunter a* values which range from 7.5 to 12, and consumers prefer meat with 9-9.5 scores.
Hue Angle value measures the discoloration of meat. Increasing values indicate increasing discoloration of meat. Decreasing values indicate reduction of the discoloration. Acceptable pork Hue Angle values range from 48 to 54, and the preferred values range from 48-52.
The final spectrographic measurement is the saturation index, which is related to the strength of the color of the meat. Acceptable pork saturation index values range from 12 to 15.5, with values from 13-14.5 being preferred. The color of the meat is of particular importance in some export markets, such as Japan, Korea, Asia and South America. […] Acceptable marbling score ranges from 1 to 3, with 2.5 being preferred.
Drip loss is a measurement of the ability of the sample to retain water. In this procedure, a standardized amount of lean pork muscle, i.e., a cubic centimeter, is weighed, then suspended in an airtight container from a hook for 24 hours. The difference in weight from beginning to end of the 24 hour period represents the amount of water loss or purge. The greater the amount of purge loss, the poorer the pork quality. Changes in the pH of pork associated with postmortem metabolism affect the isoelectric point of the various amino acids in protein, and thus can affect the protein's ability to bind water. Pork with high drip loss is termed in the industry as “exudative” which is undesirable to both meat producers and consumers.
The firmness of the meat is measured visually on the score from 1 to 5, 1 being soft and watery, 5 being firm and dry. The acceptable score is 2-4, and the preferred score is 2.5-3.5. This characteristic of pork has become important due to recent attempts to genetically improve the leanness of the meat. The desired leanness has been accompanied by a negative impact on the meat firmness. As a result, approximately 30% of the meat now going through packing houses has been categorized as PSE (Pale Soft Exudative meat) and is unacceptable to the consumer, thus causing economic loss to the meat producer according to the National Meat Producers Council. Thus, there is an urgent need in the art for means of improving the quality (firmness, color, marbling) and carcass characteristics of the pork.
as §1
Pigs were fed a corn-soybean meal diet composed of the following:
as §2, with “respectively. […]” for “respectively.”

[2] = Paylean 0 g/ton, Carnitine 25 ppm
[3] = Paylean 0 g/ton, Carnitine 50 ppm
[4] = Paylean 0 g/ton, Carnitine 25 ppm, score 1 to 5
[5] = Paylean 0 g/ton, Carnitine 50 ppm, score 1 to 5
[6] = with 4.5 or 9 g/ton Paylean, but not control pigs
[7] = with increasing levels, linear, P<0.04
[8] = Paylean 9 g/ton, Carnitine 0 ppm
[9] = Paylean 4.5 g/ton, Carnitine 0 ppm
[10] = Paylean 4.5 g/ton, Carnitine 0 ppm, score 1 to 5
[11] = Paylean 9 g/ton, Carnitine 0 ppm, score 1 to 5

C[N+](C)(C)C[C@H](O)CC(=O)[O-] [Carnitine, L-carnitine]
effect on drip loss (pork; 50 ppm, without ractopamine, two of the three studies, FIG. 1): small positive effect
effect on reducing (improving) pork drip loss (pork; added to diet containing ractopamine, FIG. 2): greater net positive effect
growth performance of pigs (pigs): did not affect
Drip loss (finishing pigs; [2]): 3.07%
Hue angle (finishing pigs; [2]): 64.61
L* (finishing pigs; [2]): 57.23
Saturation index (finishing pigs; [2]): 17.59
Temperature 5 min (finishing pigs; [2]): 39.79 °C
Temperature 15 min (finishing pigs; [2]): 39.92 °C
Temperature 45 min (finishing pigs; [2]): 39.03 °C
Temperature 1.5 h (finishing pigs; [2]): 32.87 °C
Temperature 3 h (finishing pigs; [2]): 22.12 °C
Temperature 6 h (finishing pigs; [2]): 11.28 °C
a* (finishing pigs; [2]): 7.58
a*/b* (finishing pigs; [2]): 0.48
b* (finishing pigs; [2]): 15.86
pH 0 min (finishing pigs; [2]): 7.13
pH 5 min (finishing pigs; [2]): 6.84
pH 15 min (finishing pigs; [2]): 6.60
pH 45 min (finishing pigs; [2]): 6.16
pH 1.5 h (finishing pigs; [2]): 5.91
pH 3 h (finishing pigs; [2]): 5.76
pH 6 h (finishing pigs; [2]): 5.70
pH 24 h (finishing pigs; [2]): 5.61
Firmness (finishing pigs; [2]): 2.44
Marbling (finishing pigs; [2]): 1.75
Visual cobra (finishing pigs; [2]): 3.10
Drip loss (finishing pigs; [3]): 2.73%
Hue angle (finishing pigs; [3]): 64.07
L* (finishing pigs; [3]): 58.00
Saturation index (finishing pigs; [3]): 18.11
Temperature 5 min (finishing pigs; [3]): 39.17 °C
Temperature 15 min (finishing pigs; [3]): 39.56 °C
Temperature 45 min (finishing pigs; [3]): 38.73 °C
Temperature 1.5 h (finishing pigs; [3]): 33.17 °C
Temperature 3 h (finishing pigs; [3]): 20.89 °C
Temperature 6 h (finishing pigs; [3]): 11.22 °C
a* (finishing pigs; [3]): 7.93
a*/b* (finishing pigs; [3]): 0.49
b* (finishing pigs; [3]): 16.27
pH 0 min (finishing pigs; [3]): 7.21
pH 5 min (finishing pigs; [3]): 6.82
pH 15 min (finishing pigs; [3]): 6.58
pH 45 min (finishing pigs; [3]): 6.02
pH 1.5 h (finishing pigs; [3]): 5.97
pH 3 h (finishing pigs; [3]): 5.88
pH 6 h (finishing pigs; [3]): 5.70
pH 24 h (finishing pigs; [3]): 5.60
Firmness (finishing pigs; [3]): 2.34
Marbling (finishing pigs; [3]): 1.55
Visual cobra (finishing pigs; [3]): 2.90
meat quality (finishing pigs; in pigs fed Paylean): improves meat quality
Drip loss [1, 2]: 2.80
Hue angle [1, 2]: 67.38
L* [1, 2]: 58.01
PH 45 m postmortem [1, 2]: 6.55
PH 24 h postmortem [1, 2]: 5.79
Saturation index [1, 2]: 15.89
a* [1, 2]: 6.17
a*/b* [1, 2]: 0.42
b* [1, 2]: 14.61
Temperature [1, 2]: 34.83 °C
Firmness [1, 4]: 1.65
Marbling [1, 4]: 1.71
Visual color [1, 4]: 2.78
Drip loss [1, 3]: 2.07
Hue angle [1, 3]: 67.05
L* [1, 3]: 56.80
PH 45 m postmortem [1, 3]: 6.46
PH 24 h postmortem [1, 3]: 5.76
Saturation index [1, 3]: 16.44
a* [1, 3]: 6.45
a*/b* [1, 3]: 0.43
b* [1, 3]: 15.10
Temperature [1, 3]: 32.98 °C
Firmness [1, 5]: 1.93
Marbling [1, 5]: 1.85
Visual color [1, 5]: 3.14
visual color scores ([1]; in control pigs): did not improve
L* values ([1]; increasing levels, fed with 4.5 or 9 g/ton of Paylean, longissimus muscle at 10th rib): lower L* values
color, marbling, L*, a*/b* ratio and hue angle ([1]; supplementing finishing pig diets): positively improve
Visual color ([1]; when 4.5 or 9 g/ton of Paylean was fed): did improve
Hue angle values [1, 6]: lower
a*/b* values [1, 6]: lower
Drip loss measured 48 hours postmortem [1, 7]: decreased
temperature at 45 minutes postmortem [1, 7]: decreased
Ultimate (24-h) pH ([1]; with increasing levels, linear, P<0.07): increased
Measurements of b* ([1]; with increasing levels, quadratic, P<0.05): decreased
saturation index measured on the longissimus muscle ([1]; with increasing levels, quadratic, P<0.07): tended to decrease

CC(CCc1ccc(O)cc1)NCC(O)c1ccc(O)cc1 (centres unmarked) [Paylean, ractopamine, reference compound]
Drip loss (finishing pigs; [8]): 4.85%
Hue angle (finishing pigs; [8]): 65.14
L* (finishing pigs; [8]): 59.72
Saturation index (finishing pigs; [8]): 18.74
Temperature 5 min (finishing pigs; [8]): 39.60 °C
Temperature 15 min (finishing pigs; [8]): 40.42 °C
Temperature 45 min (finishing pigs; [8]): 39.43 °C
Temperature 1.5 h (finishing pigs; [8]): 35.99 °C
Temperature 3 h (finishing pigs; [8]): 24.38 °C
Temperature 6 h (finishing pigs; [8]): 12.04 °C
a* (finishing pigs; [8]): 7.94
a*/b* (finishing pigs; [8]): 0.46
b* (finishing pigs; [8]): 16.97
pH 0 min (finishing pigs; [8]): 7.16
pH 5 min (finishing pigs; [8]): 6.79
pH 15 min (finishing pigs; [8]): 6.59
pH 45 min (finishing pigs; [8]): 6.14
pH 1.5 h (finishing pigs; [8]): 5.89
pH 3 h (finishing pigs; [8]): 5.59
pH 6 h (finishing pigs; [8]): 5.61
pH 24 h (finishing pigs; [8]): 5.58
Firmness (finishing pigs; [8]): 1.99
Marbling (finishing pigs; [8]): 1.85
Visual cobra (finishing pigs; [8]): 2.75
Drip loss [1, 9]: 3.13
Hue angle [1, 9]: 69.95
L* [1, 9]: 60.78
PH 45 m postmortem [1, 9]: 6.41
PH 24 h postmortem [1, 9]: 5.79
Saturation index [1, 9]: 16.76
a* [1, 9]: 5.78
a*/b* [1, 9]: 0.37
b* [1, 9]: 15.69
Temperature [1, 9]: 34.39 °C
Firmness [1, 10]: 1.79
Marbling [1, 10]: 1.35
Visual color [1, 10]: 2.57
Drip loss [1, 8]: 3.68
Hue angle [1, 8]: 68.65
L* [1, 8]: 61.53
PH 45 m postmortem [1, 8]: 6.33
PH 24 h postmortem [1, 8]: 5.71
Saturation index [1, 8]: 17.12
a* [1, 8]: 6.30
a*/b* [1, 8]: 0.39
b* [1, 8]: 15.90
Temperature [1, 8]: 35.72 °C
Firmness [1, 11]: 1.79
Marbling [1, 11]: 1.64
Visual color [1, 11]: 2.57
Twenty-four hour pH ([1]; with increasing levels of Paylean, quadratic, P<0.06, highest at 4.5 g/ton): increased and then decreased
